# According to PubChem BioAssay AID1963431 (Molecular Pharmacology Branch, DTP, NCI, 2024):
# Where “and” joins values, the source holds several entries; their conditions need not be identical. Identical values can stand only once.
# Test system: Rh18 complex spheroid viability, percent test/control
# Assay: Anticancer human tumor Rh18 cell line growth inhibition [Asc];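 further: spheroids exposed to compound for 7 days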;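 on viability, T/C: 100% = DMSO vehicle control wells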
# Details: for viability, T/C: stronger effect = lower value
# Method in brief: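 Concentration series start at each agent's clinical Cmax, or at 10 microM when none is established, and drop in half-log steps; agents are applied alone or together to complex spheroids built with HUVEC and hMSC.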
# [1] = curve of first compound, second compound 0.1 µM
# [2] = curve of first compound, second compound 0.316 µM
# [3] = curve of first compound, second compound 1 µM
# [4] = curve of first compound, second compound 3.16 µM
# [5] = curve of first compound, second compound 10 µM
# [6] = second compound 0.1 µM, first compound 0.0316 µM
# [7] = second compound 0.1 µM, first compound 0.1 µM
# [8] = second compound 0.1 µM, first compound 0.316 µM
# [9] = second compound 0.1 µM, first compound 1 µM
# [10] = second compound 0.316 µM, first compound 0.0316 µM
# [11] = second compound 0.316 µM, first compound 0.1 µM
# [12] = second compound 0.316 µM, first compound 0.316 µM
# [13] = second compound 0.316 µM, first compound 1 µM
# [14] = second compound 1 µM, first compound 0.0316 µM
# [15] = second compound 1 µM, first compound 0.1 µM
# [16] = second compound 1 µM, first compound 0.316 µM
# [17] = second compound 1 µM, first compound 1 µM
# [18] = second compound 3.16 µM, first compound 0.0316 µM
# [19] = second compound 3.16 µM, first compound 0.1 µM
# [20] = second compound 3.16 µM, first compound 0.316 µM
# [21] = second compound 3.16 µM, first compound 1 µM
# [22] = second compound 10 µM, first compound 0.0316 µM
# [23] = second compound 10 µM, first compound 0.1 µM
# [24] = second compound 10 µM, first compound 0.316 µM
# [25] = second compound 10 µM, first compound 1 µM
smiles,measurement,setting,value
NC(=O)C(=Cn1cnc(-c2cc(C(F)(F)F)cc(C(F)(F)F)c2)n1)c1cncnc1 + CCN1C(C(=O)NC23CCC(C(=O)O)(CC2)CC3)C(c2cccc(Cl)c2F)C2(C(=O)Nc3cc(Cl)ccc32)C12CCCCC2,IC50,"curve of first compound, second compound 0.03 µM",< 0.949 nM
same,IC50,"curve of first compound, second compound 0.0949 µM",< 0.949 nM
same,IC50,"curve of first compound, second compound 0.3 µM",< 0.949 nM
same,IC50,"curve of first compound, second compound 0.949 µM",< 0.949 nM
same,IC50,"curve of first compound, second compound 3 µM",< 0.949 nM
same,"viability, T/C","second compound 0.03 µM, first compound 0.000949 µM",39.2%
same,"viability, T/C","second compound 0.03 µM, first compound 0.003 µM",32%
same,"viability, T/C","second compound 0.03 µM, first compound 0.00949 µM",37.7%
same,"viability, T/C","second compound 0.03 µM, first compound 0.03 µM",32%
same,"viability, T/C","second compound 0.03 µM, first compound 0.0949 µM",26.6%
same,"viability, T/C","second compound 0.03 µM, first compound 0.3 µM",22.1%
same,"viability, T/C","second compound 0.0949 µM, first compound 0.000949 µM",19.4%
same,"viability, T/C","second compound 0.0949 µM, first compound 0.003 µM",18.7%
same,"viability, T/C","second compound 0.0949 µM, first compound 0.00949 µM",16.7%
same,"viability, T/C","second compound 0.0949 µM, first compound 0.03 µM",12.7%
same,"viability, T/C","second compound 0.0949 µM, first compound 0.0949 µM",9.47%
same,"viability, T/C","second compound 0.0949 µM, first compound 0.3 µM",4.98%
same,"viability, T/C","second compound 0.3 µM, first compound 0.000949 µM",9.47%
same,"viability, T/C","second compound 0.3 µM, first compound 0.003 µM",9.88%
same,"viability, T/C","second compound 0.3 µM, first compound 0.00949 µM",9.7%
same,"viability, T/C","second compound 0.3 µM, first compound 0.03 µM",6.03%
same,"viability, T/C","second compound 0.3 µM, first compound 0.0949 µM",5%
same,"viability, T/C","second compound 0.3 µM, first compound 0.3 µM",1.69%
same,"viability, T/C","second compound 0.949 µM, first compound 0.000949 µM",7.7%
same,"viability, T/C","second compound 0.949 µM, first compound 0.003 µM",9.36%
same,"viability, T/C","second compound 0.949 µM, first compound 0.00949 µM",6.31%
same,"viability, T/C","second compound 0.949 µM, first compound 0.03 µM",4.21%
same,"viability, T/C","second compound 0.949 µM, first compound 0.0949 µM",3.62%
same,"viability, T/C","second compound 0.949 µM, first compound 0.3 µM",1.42%
same,"viability, T/C","second compound 3 µM, first compound 0.000949 µM",6.6%
same,"viability, T/C","second compound 3 µM, first compound 0.003 µM",6.14%
same,"viability, T/C","second compound 3 µM, first compound 0.00949 µM",5.36%
same,"viability, T/C","second compound 3 µM, first compound 0.03 µM",4.12%
same,"viability, T/C","second compound 3 µM, first compound 0.0949 µM",2.88%
same,"viability, T/C","second compound 3 µM, first compound 0.3 µM",1.03%
CCN1CCN(Cc2ccc(Nc3ncc(F)c(-c4cc(F)c5nc(C)n(C(C)C)c5c4)n3)nc2)CC1,"viability, T/C",compound 0.00316 µM,88.8% and 66.9% and 96.3%
same,"viability, T/C",compound 0.01 µM,115% and 84.9% and 92.1%
same,"viability, T/C",compound 0.0316 µM,85.2% and 77.4% and 70.8%
same,"viability, T/C",compound 0.1 µM,66.5% and 65.2% and 78.4%
same,"viability, T/C",compound 0.316 µM,85.7% and 111% and 72.7%
same,"viability, T/C",compound 1 µM,143% and 152% and 65.1%
same,IC50,curve of compound,> 1000 nM
C=CC(=O)N1CCN(c2nc(=O)n(-c3c(C)ccnc3C(C)C)c3nc(-c4c(O)cccc4F)c(F)cc23)C(C)C1 (configuration not stated) + Cc1c(S(C)(=O)=O)c(-c2cc(F)cc(N3CCN(c4ccc(NS(=O)(=O)c5ccc(NC(CCN6CCC(C(=O)OCCCP(=O)(O)O)CC6)CSc6ccccc6)c(S(=O)(=O)C(F)(F)F)c5)cc4)CC3)c2)c(-c2ccc(Cl)cc2)n1C(C)C,IC50,[1],< 31.6 nM
same,IC50,[2],< 31.6 nM
same,IC50,[3],< 31.6 nM
same,IC50,[4],< 31.6 nM
same,IC50,[5],< 31.6 nM
same,"viability, T/C",[6],15.2%
same,"viability, T/C",[7],17%
same,"viability, T/C",[8],15.5%
same,"viability, T/C",[9],19%
same,"viability, T/C","second compound 0.1 µM, first compound 3.16 µM",20.8%
same,"viability, T/C","second compound 0.1 µM, first compound 10 µM",29.2%
same,"viability, T/C",[10],11.4%
same,"viability, T/C",[11],11.5%
same,"viability, T/C",[12],11.4%
same,"viability, T/C",[13],12.6%
same,"viability, T/C","second compound 0.316 µM, first compound 3.16 µM",15.1%
same,"viability, T/C","second compound 0.316 µM, first compound 10 µM",17.5%
same,"viability, T/C",[14],8.27%
same,"viability, T/C",[15],8.47%
same,"viability, T/C",[16],8.62%
same,"viability, T/C",[17],7.63%
same,"viability, T/C","second compound 1 µM, first compound 3.16 µM",11.4%
same,"viability, T/C","second compound 1 µM, first compound 10 µM",15%
same,"viability, T/C",[18],6.03%
same,"viability, T/C",[19],8.21%
same,"viability, T/C",[20],7.26%
same,"viability, T/C",[21],8.5%
same,"viability, T/C","second compound 3.16 µM, first compound 3.16 µM",7.74%
same,"viability, T/C","second compound 3.16 µM, first compound 10 µM",13.2%
same,"viability, T/C",[22],3.36%
same,"viability, T/C",[23],5.72%
same,"viability, T/C",[24],4.34%
same,"viability, T/C",[25],7.21%
same,"viability, T/C","second compound 10 µM, first compound 3.16 µM",5.57%
same,"viability, T/C","second compound 10 µM, first compound 10 µM",13%
COc1c(OCCCN2CCOCC2)ccc2c3n(c(=NC(=O)c4cnc(N)nc4)nc12)CCN3 + Cc1c(S(C)(=O)=O)c(-c2cc(F)cc(N3CCN(c4ccc(NS(=O)(=O)c5ccc(NC(CCN6CCC(C(=O)OCCCP(=O)(O)O)CC6)CSc6ccccc6)c(S(=O)(=O)C(F)(F)F)c5)cc4)CC3)c2)c(-c2ccc(Cl)cc2)n1C(C)C,IC50,[1],< 3.16 nM
same,IC50,[2],< 3.16 nM
same,IC50,[3],< 3.16 nM
same,IC50,[4],< 3.16 nM
same,IC50,[5],< 3.16 nM
same,"viability, T/C","second compound 0.1 µM, first compound 0.00316 µM",17.1%
same,"viability, T/C","second compound 0.1 µM, first compound 0.01 µM",9.25%
same,"viability, T/C",[6],5.96%
same,"viability, T/C",[7],2.81%
same,"viability, T/C",[8],0.62%
same,"viability, T/C",[9],0.45%
same,"viability, T/C","second compound 0.316 µM, first compound 0.00316 µM",7.85%
same,"viability, T/C","second compound 0.316 µM, first compound 0.01 µM",8.34%
same,"viability, T/C",[10],4.97%
same,"viability, T/C",[11],1.98%
same,"viability, T/C",[12],0.56%
same,"viability, T/C",[13],0.49%
same,"viability, T/C","second compound 1 µM, first compound 0.00316 µM",8.6%
same,"viability, T/C","second compound 1 µM, first compound 0.01 µM",6.08%
same,"viability, T/C",[14],4.68%
same,"viability, T/C",[15],1.06%
same,"viability, T/C",[16],0.44%
same,"viability, T/C",[17],0.48%
same,"viability, T/C","second compound 3.16 µM, first compound 0.00316 µM",5.39%
same,"viability, T/C","second compound 3.16 µM, first compound 0.01 µM",5.31%
same,"viability, T/C",[18],3.11%
same,"viability, T/C",[19],0.45%
same,"viability, T/C",[20],0.35%
same,"viability, T/C",[21],0.46%
same,"viability, T/C","second compound 10 µM, first compound 0.00316 µM",3.54%
same,"viability, T/C","second compound 10 µM, first compound 0.01 µM",5%
same,"viability, T/C",[22],2.62%
same,"viability, T/C",[23],0.51%
same,"viability, T/C",[24],0.53%
same,"viability, T/C",[25],0.49%
